# pKi: −log10 of the molar value.
# Biological target: T1, histamine 3 receptor (H3R), human HR3-CHO membranes (Homo sapiens, UniProt Q9Y5N1)
# T1 construct: expressed in transfected cells; host or cells: CHO cells (HR3-CHO cell line), membrane preparation
# Assay: Competition binding assay with 3H-(R)α-methylhistamine on membranes of the human HR3-CHO cell line
# Details: displacement of 3H-(R)α-methylhistamine (1 nM), membrane of human HR3-CHO cell line; Ki calculated from IC50 by Cheng-Prusoff
# Method: Binding Assay with ^3H-(R)α-methylhistamine
# Saturation binding experiments were performed using HR3-CHO membranes prepared as described in Takahashi, K, Tokita, S., Kotani, H. (2003) J. Pharmacol. Exp. Therapeutics 307, 213-218.
# An appropriate amount of membrane (60 to 80 μg protein/well) was incubated with increasing concentrations of ^3H(R)α-Methylhistamine di-hydrochloride (0.10 to 10 nM). Non specific binding was determined using a 200 fold excess of cold (R)(X-Methylhistamine dihydrobromide (500 nM final concentration). The incubation was carried out at room temperature (in deep-well plates shaking for three hours). The final volume in each well was 250 pt. The incubation was followed by rapid filtration on GF/B filters (pre-soaked with 100 W of 0.5% PEI in Tris 50 mM shaking at 200 rpm for two hours). The filtration was made using a cell-harvester and the filter plates were then washed five times with ice cold washing buffer containing 0.5 M NaCl. After harvesting, the plates were dried at 55° C. for 60 min, then we added scintillation fluid (Microscint 40, 40 microl in each well) and the amount of radioactivity on the filter was determined in Packard top-counter after shaking the plates for two hours at 200 rpm at room temperature.
# Binding Buffer: 50 mM Tris-HCl pH 7.4 and 5 mM MgCl2×6H2O pH 7.4. Washing Buffer: 50 mM Tris-HCl pH 7.4 and 5 mM MgCl2x6H2O and 0.5 M NaCl pH 7.4.
# Indirect measurement of affinity of H3R inverse agonists: twelve increasing concentrations (ranging from 10 μM to 0.3 nM) of the selected compounds were always tested in competition binding experiments using membrane of the human HR3-CHO cell line. An appropriate amount of protein, e.g. approximately 500 cpm binding of RAMH at Kd, were incubated for 1 hour at room temperature in 250 μl final volume in 96-well plates in presence of ^3H(R)α-Methylhistamine (1 nM final concentration=Kd). […]
# All compounds were tested at a single concentration in duplicates. […] Ki's were calculated from IC50 based on Cheng-Prusoff equation (Cheng, Y, Prusoff, W H (1973) Biochem Pharmacol 22, 3099-3108).
# T1 sequence (Q9Y5N1 whole entry): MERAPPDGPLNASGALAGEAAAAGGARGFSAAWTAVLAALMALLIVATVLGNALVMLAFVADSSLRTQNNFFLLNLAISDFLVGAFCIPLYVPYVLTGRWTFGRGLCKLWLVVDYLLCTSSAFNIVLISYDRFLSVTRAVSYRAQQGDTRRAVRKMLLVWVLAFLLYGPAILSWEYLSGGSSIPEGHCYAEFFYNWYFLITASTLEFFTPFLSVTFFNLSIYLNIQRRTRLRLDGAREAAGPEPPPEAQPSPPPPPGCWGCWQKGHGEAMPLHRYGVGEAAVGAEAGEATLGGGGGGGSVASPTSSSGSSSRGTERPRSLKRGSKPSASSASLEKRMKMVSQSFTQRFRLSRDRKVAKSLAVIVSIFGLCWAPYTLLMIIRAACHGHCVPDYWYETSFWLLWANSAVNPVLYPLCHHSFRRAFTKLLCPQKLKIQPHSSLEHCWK
row,pKi,Compound
1,6.70,"CC(C)N1CCC(Oc2ccc3nc(C(=O)N4CC=CC4)ccc3c2)CC1 [Example 2, (2,5-dihydro-pyrrol-1-yl)-[6-(1-isopropyl-piperidin-4-yloxy)-quinolin-2-yl]-methanone]"
2,7.11,"CC(C)N1CCC(Oc2ccc3nc(C(=O)N4CCC4)ccc3c2)CC1 [Example 14, azetidine-1-yl-[6-(1-isopropyl-piperidin-4-yloxy)-quinolin-2-yl]-methanone]"
3,6.35,"O=C(c1ccc2cc(OCCCN3CCCCC3)ccc2n1)N1CCCC1 [Example 64, [6-(3-piperidin-1-yl-propoxy)-quinolin-2-yl]-pyrrolidin-1-yl-methanone]"

# Source: US7534891B2, “Quinoline derivatives as H3R inverse agonists” (Hoffman-La Roche Inc., priority 2004, dated 2009)
